Laboratory results taken from publication PMC7724566, “Prospects for Clinical Development of Stat5 Inhibitor IST5-002: High Transcriptomic Specificity in Prostate Cancer and Low Toxicity In Vivo” (Cancers, 2020).

Columns and labels:
athymic nude mice = assay: Chronic toxicity study (28 days), plasma biochemistry; type: in vivo; conditions: i.p. 28 days; for A-G Ratio / ALT / AST / Albumin / Alk.Ptase / Bile Acid / Chol / TBIL / Globulin / BUN: plasma; for Globulin: in g/dL (unit assumed); for BUN: in mg/dL (unit assumed)
Protocol: (§1) Forty athymic nude mice (8 weeks) (Crl:NU/NCr-Foxn1n) of either sex (20 males and 20 females) were randomized into four groups (n = 5/group) for either sex. The randomization of the mice was carried out based on their baseline body weight measured on day 0. IST5 or vehicle (0.3% hydroxypropyl cellulose, (Sigma-Aldrich, MO, St. Louis, MO, USA) were administered to the mice by i.p. injection for 28 days. The mice were observed daily for behavior, and body weights were measured on every 3rd day throughout the 28-day experimental protocol. The monitoring was started immediately after the compound administration and continued for 2 h for any acute signs of toxicity. In addition, the mice were monitored daily for any signs of toxicity using several clinical parameters. The clinical signs that were taken into consideration were as follows: 1) weight loss: rapid weight loss ([…]) or, weight loss of extended period time ([…]); 2) rapid growth of mass or masses; 3) paralysis or paresis (partial paralysis); 4) frank bleeding from any orifice; 5) lesions interfering with eating or drinking; 6) diarrhea (non-formed/soft stool or diarrhea liquid stool); 6) loss of body temperature; 7) appearance: rough coat, porphyrin staining (red or brown staining around eyes, nose, or along front paws, distended abdomen, alopecia; 8) eyes: ocular discharge, pale appearance, distinct icterus (jaundice or yellowing of the eyes); 9) respiration: coughing or wheezing, rales or crackling in the lungs, respiration increased or labored; 10) behavioral: hunched posture, huddling in a corner, lethargy, avoiding cagemate(s), head tilt, tremors (head, body, tail), spasticity (stiff muscles), ataxia (loss of voluntary muscle movement), seizures or convulsions, circling, persistent self-induced trauma, chattering or vocalizations, loss of startle response, loss of righting reflex. The clinical chemistry parameters measured were the same as those used for the acute toxicity study.

[1] = tested on: C57BL/6J and athymic nude mice; assay: Acute and chronic toxicity studies, clinical observation and histology; type: in vivo
Protocol: The acute and chronic toxicity studies were carried out in both male C57BL/6J and athymic nude mice (Table 3 and Table 4) using daily administration of IST5 vs. vehicle at doses of 0, 10, 30 and 100 mg/kg (n = 5/dose) as well as in female (data not shown) mice. There were no signs of anemia (hemoglobin-HGB; hematocrit-HCT), thrombocytopenia or leukopenia. In either acute or chronic toxicity studies, there was no mortality in the mice associated with IST5 treatment. The gross histology of the liver, spleen (Figure 6), kidney and brain were normal (28 d). […] IST5 had no effects on body weight, organ weight, appearance, respiration, or eye function. Of note, a number of the Jak2 kinase inhibitors in use or in clinical development have shown off-target inhibitory effects on TrkB kinase (a receptor for brain-derived neurotrophic factor), thereby causing neurological side-effects.
Figure 6 IST5 […] significant chronic toxicity in vivo in mice. The chronic toxicity studies were carried out in both male and female C57BL/6J and athymic nude mice by daily administration of IST5 vs. vehicle at doses of 0, 10, 30 and 100 mg/kg (n = 5/dose). At the end of the study, heart, kidney, liver, lung and spleen tissues were fixed and stained with hematoxylin and eosin. The gross histology of heart, liver, spleen, kidney, spleen and brain were all normal (28 d).
as §1
The sub-chronic toxicity study (10 days) was carried out in C57BL/6J mice (8 weeks) (stock 000664) (n = 10/dose group 5 of each sex). […]

[2] = tested on: enzalutamide-resistant PC; parameters: method as in PMID 31548294; conditions: cited from earlier work

Compound `O=P(O)(O)OCC1OC(n2cnc3c(NCc4ccccc4)ncnc32)C(O)C1O` (stereo not drawn) [IST5] has a BW (athymic nude mice; 10 mg/kg) of 22.5 ± 1.1 gm, an HCT (athymic nude mice; 10 mg/kg) of 0.43 ± 0.02 L/L and an A-G Ratio (athymic nude mice; 10 mg/kg) of 1.93 ± 0.08. For the same compound, the ALT (athymic nude mice; 10 mg/kg) was 50.4 ± 3.71 U/L, the AST (athymic nude mice; 10 mg/kg) was 329.9 ± 30.9 U/L and the Albumin (athymic nude mice; 10 mg/kg) was 2.69 ± 0.05 g/dL. For the same compound, the Alk.Ptase (athymic nude mice; 10 mg/kg) was 51.3 ± 0.72 U/L, the “Bile Acid” value (athymic nude mice; 10 mg/kg) was 21.0 ± 12.7 µmol/dL and the Chol (athymic nude mice; 10 mg/kg) was 65.0 ± 2.09 mg/dL. It also gave a TBIL (athymic nude mice; 10 mg/kg) of 0.26 ± 0.02 mg/dL, a Globulin (athymic nude mice; 10 mg/kg) of 1.41 ± 0.04 and a BUN (athymic nude mice; 10 mg/kg) of 20.5 ± 0.82. For the same compound, the BW (athymic nude mice; 30 mg/kg) was 23.5 ± 0.6 gm, the HCT (athymic nude mice; 30 mg/kg) was 0.45 ± 0.01 L/L and the A-G Ratio (athymic nude mice; 30 mg/kg) was 1.9 ± 0.11. It also gave an ALT (athymic nude mice; 30 mg/kg) of 45.2 ± 3.76 U/L, an AST (athymic nude mice; 30 mg/kg) of 336 ± 57.1 U/L and an Albumin (athymic nude mice; 30 mg/kg) of 2.74 ± 0.07 g/dL. For the same compound, the Alk.Ptase (athymic nude mice; 30 mg/kg) was 53.0 ± 1.93 U/L, the “Bile Acid” value (athymic nude mice; 30 mg/kg) was 2.39 ± 0.32 µmol/dL and the Chol (athymic nude mice; 30 mg/kg) was 70.3 ± 1.38 mg/dL. It also gave a TBIL (athymic nude mice; 30 mg/kg) of 0.21 ± 0.01 mg/dL, a Globulin (athymic nude mice; 30 mg/kg) of 1.47 ± 0.07 and a BUN (athymic nude mice; 30 mg/kg) of 25 ± 1.32. For the same compound, the BW (athymic nude mice; 100 mg/kg) was 23.5 ± 0.9 gm, the HCT (athymic nude mice; 100 mg/kg) was 0.43 ± 0.03 L/L and the ALT (athymic nude mice; 100 mg/kg) was 50.9 ± 3.83 U/L. It also gave an AST (athymic nude mice; 100 mg/kg) of 327 ± 4.03 U/L, an Albumin (athymic nude mice; 100 mg/kg) of 2.74 ± 0.04 g/dL and an Alk.Ptase (athymic nude mice; 100 mg/kg) of 53.3 ± 1.76 U/L. For the same compound, the “Bile Acid” value (athymic nude mice; 100 mg/kg) was 2.98 ± 0.29 µmol/dL, the Chol (athymic nude mice; 100 mg/kg) was 75.9 ± 2.06 mg/dL and the BUN (athymic nude mice; 100 mg/kg) was 23.0 ± 0.07. For the same compound, the “mortality associated with treatment” value ([1]; acute or chronic toxicity studies, 10, 30 and 100 mg/kg) was “no mortality”, the “signs of anemia, thrombocytopenia or leukopenia” value ([1]; daily 10, 30 and 100 mg/kg) was “no signs” and the “adverse effects on blood clinical chemistry (blood urea, liver enzymes, glucose, albumin)” value ([1]; mouse, in vivo) was “no adverse effects”. For the same compound, the “effects on body weight, organ weight, appearance, respiration, or eye function” value ([1]; mouse, in vivo) was “no effects”, the “gross histology of liver, spleen, kidney and brain” value ([1]; mouse, in vivo) was “normal” and the “enzalutamide-resistant PC growth in mice” value [2] was “blocks enzalutamide-resistant PC growth”.
